This data set is described as follows: gradient 5% acetonitrile 3 min, to 50% in 2 min, to 85% in 15 min, held 3 min, 100 µL/min. The settings on record: column: Zorbax Extend-C18 2.1 x 50 mm; eluents: water / acetonitrile, 0.1% formic acid. The method in brief:
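In both positive and negative ionization mode, a quadrupole time-of-flight mass spectrometer coupled to HPLC analyzed pure standards run in mixtures of ~100 molecules. The Zorbax Extend-C18 column (2.1 × 50 mm, 1.8 μm) was operated at 100 μL/min with water and acetonitrile, each containing 0.1% formic acid. The dead volume was 40 μL and the dwell volume 900 μL. Retention time came from adduct peaks that were computationally picked and individually inspected by hand.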
With `CN1C(=O)C2(CCN(C(=O)c3ccnn3C)CC2)c2ccccc21`, the RP-LC retention time is 699 s.

`CCOc1ccc(-c2nnc(SCC(N)=O)o2)cc1` had an RP-LC retention time of 682 s.

With `COC(=O)c1ccc(NC(=O)c2sc(-c3cn(C)c4ncccc34)nc2C)cc1`, the RP-LC retention time was determined as 1080 s.

For `COc1ccc(CNC(=O)c2c(C)sc3ccn(CC(C)C)c(=O)c23)cc1OC`, the RP-LC retention time stood at 865 s.

Turning to `COc1ccc(-c2csc(Nc3cc(C)ccn3)n2)cc1`, the RP-LC retention time stood at 783 s.

On to `COc1ccc(-c2cc(C(=O)NC3CCCCC3)nn2C2CCS(=O)(=O)C2)cc1` (stereo not given), for which the RP-LC retention time came to 885 s.

On to `CCOC(=O)c1ccc(NC(=O)c2cc3c(=O)n(CC(C)C)c4ccccc4n3n2)cc1`, for which the RP-LC retention time was 750 s.

For `Cc1nc(CNC(=O)C2CCN(C(=O)Nc3ccccc3Br)CC2)cs1`, the RP-LC retention time worked out at 655 s.

For the compound `O=C(CN1CCCC(COCc2ccccc2)C1)N1CCN(c2ccccc2)CC1` (stereo not given), the RP-LC retention time worked out at 620 s.

`CSc1ncccc1-c1nnc(C)o1`: the RP-LC retention time was determined as 712 s.

Take `Cc1ccc(NC(=O)Cn2c(C)cc(-c3nnc(C)o3)c2C)c(C)c1`: the RP-LC retention time amounted to 802 s.

On to `O=C(c1c(-c2ccccc2)nnc2ccccc12)N1CCN(c2ccccn2)CC1`, for which the RP-LC retention time came out at 605 s.

`Cc1ccc(CN2N=C(C(=O)N3CCCCC3)S(=O)(=O)c3ccccc32)cc1` gave an RP-LC retention time of 974 s.

The compound `Cc1nc(-c2cn(Cc3cccc(F)c3)nn2)no1` showed an RP-LC retention time of 748 s.

On to `CC1=C(c2ccccc2)S(=O)(=O)N=C1N1CCC(NC(=O)NCC(C)C)CC1`, for which the RP-LC retention time turned out to be 790 s.

Consider `CCN(CC)CCCNC(=O)c1ccc2c(c1)N(C)C(=O)C1CCCCN21` (stereo not given), for which the RP-LC retention time was found to be 608 s.

`Cc1nc(-c2csc(S(=O)(=O)N3CCC(C(=O)N4CCCCC4)CC3)c2)no1`: the RP-LC retention time was 818 s.

`CCSc1ccccc1C(=O)NCc1nc(COc2ccc(OC)cc2)no1` returned an RP-LC retention time of 848 s.

In turn, `COc1ccc(C2(c3nc(-c4ccc5oc(C)nc5c4)no3)CC2)cc1` came in with an RP-LC retention time of 651 s.

Compound `O=C(CN1C(=O)C(C(=O)N2CCCC2)Sc2ccccc21)NCc1ccccc1` (stereo not given) displayed an RP-LC retention time of 870 s.

On to `CC1Oc2ccc(S(=O)(=O)N3CCC(C(=O)NCc4ccco4)CC3)cc2NC1=O` (stereo not given), for which the RP-LC retention time came out at 722 s.

`COc1cc(CNC(=O)C23CCC=C2N(C2CCCC2)C(=O)CC3)cc(OC)c1` (stereo not given): the RP-LC retention time worked out at 752 s.

`Cc1ccc(-c2nc(Nc3cccc(C(F)(F)F)c3)sc2CC(=O)O)c(C)c1` returned an RP-LC retention time of 1120 s.

Take `CCC(C)C(NC(=O)c1ccc2c(c1)OCO2)C(=O)Nc1nc2ccccc2[nH]1` (stereo not given): the RP-LC retention time was found to be 718 s.

For the compound `CCOc1cccc(-c2noc(Cn3ccnc3C)n2)c1`, the RP-LC retention time came to 647 s.

Regarding `Cc1nc(-c2noc(-c3ccccc3)n2)cn1CC(=O)NCc1ccc(F)cc1F`, the RP-LC retention time worked out at 838 s.

Regarding `O=C(NC1CC1)C1Cc2ccccc2CN1S(=O)(=O)c1ccc(Cl)cc1` (stereo not given), the RP-LC retention time was determined as 909 s.

`CCOc1nc2ccccc2nc1N1CCCC(C(=O)Nc2ccc(Cl)cc2)C1` (stereo not given) had an RP-LC retention time of 1300 s.

In the case of `COc1ccc(N2CC(C(=O)N3CCC(C(=O)NC4CCS(=O)(=O)C4)CC3)CC2=O)cc1` (stereo not given), the RP-LC retention time was 603 s.

Consider `Cc1nc2cc(-c3noc(-c4ccc(C#N)cc4)n3)ccc2n(C(C)C)c1=O`, for which the RP-LC retention time is 929 s.

The compound `Cc1ccc(CCC(=O)Nc2nc(-c3ccc4c(c3)N(C)C(=O)C(C)O4)cs2)cc1` (stereo not given) gave an RP-LC retention time of 1070 s.

As to `COc1cccc(N2CCN(C(=O)c3cc4c(=O)n(C)ccc4n3C)CC2)c1`, the RP-LC retention time stood at 700 s.

`CCCCN1CC(=O)N(c2ccc(OC)cc2)[C@@H]2CS(=O)(=O)C[C@@H]21` gave an RP-LC retention time of 719 s.

As to `CC1CCN(S(=O)(=O)c2ccc3nc(N4CCN(c5ccccc5F)CC4)ccc3c2)CC1`, the RP-LC retention time is 1260 s.

In turn, `COc1ncc(C(=O)Nc2ccc(F)c(Cl)c2)c(C)n1` showed an RP-LC retention time of 825 s.

`O=C(Nc1nc(-c2nc3ccccc3s2)cs1)c1c(F)cccc1F` gave an RP-LC retention time of 920 s.

In the case of `CC(C)c1noc(C2(NC(=O)c3cccc(Cl)c3)CCCCC2)n1`, the RP-LC retention time is 1130 s.

The compound `Cc1ccc(Nc2c(-c3c(F)cccc3Cl)nc3ccc(Cl)cn23)cc1` returned an RP-LC retention time of 994 s.

In turn, `O=C(CN1C(=O)CCc2cc(Br)ccc21)N1CCN(c2ccc(F)cc2)CC1` gave an RP-LC retention time of 949 s.

As for `COc1ccc(C)cc1NC(=O)CN1C(=O)C2CCCCN2c2ccc(S(=O)(=O)N(C)C)cc21` (stereo not given), the RP-LC retention time came to 1000 s.

As for `O=C(Cc1ccc(Cl)cc1)Nc1cnc(N2CCCCC2)nc1`, the RP-LC retention time is 962 s.

For the compound `Cn1c(=O)n(CCN2CCCCC2)c(=O)c2c1nc1n2CCCN1c1ccc(Br)cc1`, the RP-LC retention time worked out at 678 s.

Turning to `COc1ccccc1C(CNC(=O)c1cc(=O)c2ccc(Br)cc2o1)N(C)C` (stereo not given), the RP-LC retention time amounted to 669 s.

Compound `Cc1cc(C)cc(Nc2nc(C)cc3nn(CC(=O)NC4CCCC4)c(=O)n23)c1` showed an RP-LC retention time of 998 s.

Consider `O=C(NCCc1csc(-c2cccs2)n1)C1CCN(C(=O)COc2ccccc2)CC1`, for which the RP-LC retention time stood at 783 s.

In turn, `COc1ccc(OC)c(NC(=O)N(C)CCc2noc(COc3ccccc3)n2)c1` yielded an RP-LC retention time of 936 s.

In turn, `Cc1ccc(-n2c(N3CCCC(C(=O)NCCC4=CCCCC4)C3)nc3ccsc3c2=O)cc1` (stereo not given) had an RP-LC retention time of 1060 s.

Compound `COc1ccc(-c2cc(C(=O)N(C)C3CCN(C)CC3)nn2C2CCS(=O)(=O)C2)cc1` (stereo not given) yielded an RP-LC retention time of 600 s.

`CCOc1cc(C(=O)NC2CCN(c3cc(-c4ccc(F)cc4)[nH]n3)C2)cc(OCC)c1OCC` (stereo not given) registered an RP-LC retention time of 858 s.

With `CC(C)OCCCNC(=O)c1ccc2c(=O)n(-c3ccccc3)c(N3CCCC3)nc2c1`, the RP-LC retention time came out at 777 s.

`Cc1ccc(NC(=O)N2CC(c3nc(C)no3)C3(CCOCC3)C2)c(Cl)c1` (stereo not given): the RP-LC retention time came out at 796 s.

The compound `CCOc1ccc(-c2noc(Cn3ccn4nc(-c5ccc(F)cc5)cc4c3=O)n2)cc1OC` showed an RP-LC retention time of 819 s.

`COc1ccc(NC(=O)N2CCC(N3CCN(Cc4ccccc4)C3=O)CC2)c(OC)c1`: the RP-LC retention time was found to be 796 s.

`Cc1cccc(C(=O)NC2CCN(c3cc(-c4cccs4)[nH]n3)C2)c1` (stereo not given) showed an RP-LC retention time of 741 s.

The compound `CCOC(=O)c1noc2ncnc(Nc3cc(C)ccc3OC)c12` displayed an RP-LC retention time of 1060 s.

`CCOC(=O)C1CCN(C(=O)C2CCCN(c3ncnc4c3nc3n4CCCCC3)C2)CC1` (stereo not given) returned an RP-LC retention time of 726 s.

With `CNC(=O)c1c2c(nc3ccc(F)cc13)CCCC2`, the RP-LC retention time worked out at 571 s.

For `O=C(Nc1ccccc1)C1CCc2nc(N3CCCCC3)ncc2C1` (stereo not given), the RP-LC retention time worked out at 745 s.

The compound `O=C(Nc1ccc(F)cc1)N1CCc2nc(-c3ccc(F)cc3)ncc2C1` showed an RP-LC retention time of 926 s.

In turn, `CN(C(=O)Cn1cnc2c(-c3ccc(Cl)cc3)csc2c1=O)c1ccc(F)cc1` yielded an RP-LC retention time of 1180 s.

In the case of `CCCN(CCC)C1CCc2cc(O)c(O)cc2C1` (stereo not given), the RP-LC retention time came to 641 s.

The compound `Cc1csc(-c2csc(S(=O)(=O)N3CCN(c4ccccc4)CC3)c2)n1` had an RP-LC retention time of 1090 s.

`Cc1nncn1C1CCN(S(=O)(=O)c2ccccc2F)CC1`: the RP-LC retention time was determined as 654 s.

In turn, `CC(C)NC(=O)c1ccc(OCC2CCN(C(=O)c3ccc(Br)o3)CC2)cc1` displayed an RP-LC retention time of 878 s.

Take `Cc1ccc(Cn2cccc2C(=O)C(=O)NC2CC2)cc1`: the RP-LC retention time turned out to be 928 s.

In turn, `Cc1ccc(C(=O)N2CCc3cc(-c4ccno4)ccc32)cc1` displayed an RP-LC retention time of 974 s.

`O=S(=O)(c1cc(-c2cc(C(F)(F)F)on2)cs1)N(Cc1ccco1)C1CCCCC1` came in with an RP-LC retention time of 1300 s.

`COc1nc2ccccc2nc1N1CCCC(C(=O)NCc2ccccc2)C1` (stereo not given) displayed an RP-LC retention time of 1040 s.

Take `Cc1c(NC(=O)C2CCN(S(=O)(=O)Cc3ccccc3)CC2)c(=O)n(-c2ccccc2)n1C`: the RP-LC retention time came out at 672 s.

On to `C=C1C(=O)OC2C1CCC(C)C1(O)C=CC(=O)C21C` (stereo not given), for which the RP-LC retention time was determined as 722 s.

The compound `COc1ccc(S(=O)(=O)N2CCN(CCc3cn(C)c4ncccc34)CC2)cc1` returned an RP-LC retention time of 609 s.

The compound `O=S(=O)(c1ccc(Br)cc1)N1CCC(c2noc(-c3ccccc3)n2)CC1` registered an RP-LC retention time of 1180 s.

For the compound `COc1ccc(-c2cc(C(=O)N3CCN(S(=O)(=O)c4ccc(C(C)(C)C)cc4)CC3)[nH]n2)cc1`, the RP-LC retention time came to 1030 s.

Take `FC1(F)CN[C@H](c2nc(-c3cccnc3)no2)C1`: the RP-LC retention time is 621 s.

Compound `CCCN1C(=O)CCc2cc(NC(=O)c3ccn(CC)n3)ccc21` yielded an RP-LC retention time of 756 s.

With `COCCn1c(-c2ccccc2)cnc1SCC(=O)Nc1ccccc1`, the RP-LC retention time came to 669 s.

`CCOC(=O)N1CCN(C(=O)Cc2c(C)nn(-c3nc(-c4ccccc4)cs3)c2C)CC1`: the RP-LC retention time turned out to be 998 s.

`CN1C(=O)c2ccccc2Sc2ccc(NC(=O)N3CCC(C(N)=O)CC3)cc21` came in with an RP-LC retention time of 1430 s.

For the compound `COc1ccc(CCC(=O)N2CCCC2c2cc(C)on2)cc1` (stereo not given), the RP-LC retention time worked out at 775 s.

`C=CCn1c(C)c(CC(=O)NCCC)c(=O)n2nc(-c3ccccc3)nc12`: the RP-LC retention time came to 730 s.

The values above are taken from the METLIN SMRT retention time set (Domingo-Almenara et al. 2019).
